SMILES strings stand for the structures. Where two headings read alike, the source gives them in different places.

The subject of one data set is HMLE-Snail cell line. In words: Formation of HMLE-Snail cell line spheroids. It counts as cell-based. Particulars: read-out: Colony (%): cell colony number of drug-treated group/cell colony number of control group × 100%.
For the next data set, the system named is 786-O. Kind of data set: Inhibitory activity for other high metastasis type cancer cell line (MTT or CCK-8). As to conditions: Homo sapiens, 786-0, 72 h. The data set is classed as cell-based.
For another data set, the system named is CaSki. Described as above. It counts as cell-based. As to conditions: Homo sapiens, Ca-Ski, 72 h.
A further data set relates to Saos-2. The description is as above. The data set is classed as cell-based. As to conditions: Homo sapiens, SAOS-2, 72 h.
The next data set has as its system TNF-α. In words: Serum TNF-α level of IBD animal model (ELISA). The data set is classed as in vivo, SD rats. Particulars: 80 mg/kg, three days after making the TNBS model. An excerpt:
(§1) Inflammatory bowel disease is an autoimmune disease. […] The therapeutic effect of the representative compound for the immune system disease or inflammation can be assessed by detecting change in levels of some important cytokines such as TNF-α and IL-6 at downstream of the signal path.

The subject of the next data set is IL-6. In words: Serum IL-6 level of IBD animal model (ELISA). It counts as in vivo, SD rats. Particulars: 80 mg/kg, three days after making the TNBS model.
From the text: as §1

A further data set relates to HO-8910. Kind of data set: Inhibitory activity for high metastasis type ovarian cancer cell line (MTT or CCK-8). It counts as cell-based. Particulars: HO-8910, 72 h. How it is done: (§2) The two cell lines were inoculated on 96-well cell culture plate in an amount of 6000 cells per well and cultured at 37° C. for 24 hours, and then treated solely with the representative compound added therein and cultured. Seventy-two hours later, MTT or CCK-8 method was used to detect the inhibitory activity of the representative compound for the high metastasis type ovarian cancer cell lines.

For another data set, the system named is A2780. The description is as above. The data set is classed as cell-based. As to conditions: Homo sapiens, A2780, 72 h. On the procedure:
as §2

The subject of the next data set is IBD animal model. In words: Macroscopic pathological changes of IBD animal model (enteroclysis with TNBS). It counts as in vivo, SD rats. As to conditions: 80 mg/kg intragastrically daily, TNBS rats, score 0-5, 10 animals. The method in brief: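 Male SD rats, eight weeks old (10 per group), given rectal TNBS in 50% ethanol at 100 mg/kg 5 cm from anus; controls received saline. Drug treatment for two weeks, then rectum photographed, weighed and scored macroscopically for ulceration and bleeding.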

The next data set has as its system KYSE-70. Kind of data set: Inhibitory activity for other high metastasis type cancer cell line (MTT or CCK-8). As to conditions: Homo sapiens, KYSE-70, 72 h. It counts as cell-based.
In another data set the test system is NCI-H1650. Kind of data set: cells. The data set is classed as cell-based. Particulars: Homo sapiens, NCI-H1650, 72 h. How it is done: (§3) NCI-H1975 and NCI-H1650 are two typical high metastasis type lung cancer cell lines. The therapeutic effect of the representative compound for the metastasis type lung cancers can be preliminarily assessed by detecting the inhibitory activity of the representative compound for the two cell lines. The lung cancer cell line was inoculated on 96-well cell culture plate in an amount of 6000 cells per well and cultured at 37° C. for 24 hours, and then treated solely with the compound added therein and cultured. Seventy-two hours later, MTT or CCK-8 method was used to detect the inhibitory activity of the compound for the two lung cancer cell lines.

The test system of another data set is NCI-H1975. In words: cells. It counts as cell-based. As to conditions: Homo sapiens, NCI-H1975, 72 h. How it is done: as §3
The target in the next data set is T1, XPO1 protein (Homo sapiens, UniProt O14980).
T1 construct: Sixteen hours later, NES-GFP plasmid was transfected with liposome; endogenous in cells
T1 sequence (O14980 whole entry, species assumed): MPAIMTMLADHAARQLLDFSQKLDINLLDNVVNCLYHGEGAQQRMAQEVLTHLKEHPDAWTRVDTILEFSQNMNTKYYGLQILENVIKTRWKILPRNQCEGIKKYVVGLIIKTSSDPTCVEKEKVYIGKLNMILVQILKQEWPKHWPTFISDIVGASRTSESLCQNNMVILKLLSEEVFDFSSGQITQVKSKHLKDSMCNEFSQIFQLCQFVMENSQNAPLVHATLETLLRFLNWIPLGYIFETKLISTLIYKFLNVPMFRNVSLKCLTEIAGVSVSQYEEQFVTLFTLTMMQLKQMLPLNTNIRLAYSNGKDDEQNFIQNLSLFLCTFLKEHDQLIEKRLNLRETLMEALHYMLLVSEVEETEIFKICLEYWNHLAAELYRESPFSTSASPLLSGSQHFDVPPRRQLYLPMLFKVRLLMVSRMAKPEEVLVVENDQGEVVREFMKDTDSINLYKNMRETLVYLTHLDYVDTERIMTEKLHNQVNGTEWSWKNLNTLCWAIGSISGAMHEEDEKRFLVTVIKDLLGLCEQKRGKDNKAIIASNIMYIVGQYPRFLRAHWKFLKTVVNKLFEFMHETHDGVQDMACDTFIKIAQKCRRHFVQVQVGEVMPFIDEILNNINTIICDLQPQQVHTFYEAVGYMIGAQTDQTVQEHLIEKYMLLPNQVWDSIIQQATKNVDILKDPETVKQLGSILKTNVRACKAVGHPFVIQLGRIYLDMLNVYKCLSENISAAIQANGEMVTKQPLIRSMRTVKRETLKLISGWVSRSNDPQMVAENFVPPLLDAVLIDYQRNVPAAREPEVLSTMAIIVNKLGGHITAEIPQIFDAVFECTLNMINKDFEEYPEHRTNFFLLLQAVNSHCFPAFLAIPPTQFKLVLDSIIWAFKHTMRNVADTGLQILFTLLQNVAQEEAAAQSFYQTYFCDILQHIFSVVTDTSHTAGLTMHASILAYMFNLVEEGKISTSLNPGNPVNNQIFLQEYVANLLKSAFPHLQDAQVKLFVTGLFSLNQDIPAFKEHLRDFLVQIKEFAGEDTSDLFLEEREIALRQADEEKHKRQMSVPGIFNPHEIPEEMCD
In words: Inhibitory activity for XPO1 protein (NES-GFP nuclear export, laser confocal microscope). It counts as cell-based. As to conditions: for Activity (μM): inhibitory activity for XPO1 protein (full inhibitory concentration): NES-GFP nuclear export, cells treated for 2 hours.

For a further data set, the system named is Panc-1. Kind of data set: Inhibitory activity for other high metastasis type cancer cell line (MTT or CCK-8). It counts as cell-based. As to conditions: Homo sapiens, PANC-1, 72 h.
A short description of data set [1]: Safety testing via oral administration, 6 weeks. The data set is classed as in vivo. As to conditions: intragastric, 6 weeks continuously, male and female SD rats. On the procedure: The compound solution was intragastrically administrated to 6-week-old male and female SD rats (I-01: 500 mg/kg/day; I-03: 500 mg/kg/day; I-04: 500 mg/kg/day, I-06: 500 mg/kg/day, I-11: 300 mg/kg/day) for 6 weeks continuously (n=10 per group).

On to `[O-][S+](/C=C/CCN=C=S)c1ccccc1` (stereo not shown) [Compound I-01], for which, in the data set with HMLE-Snail cell line (24 h), the activity at 10 µg/mL lay in the range of 35 to 40%. The IC50 in the data set with 786-O is 1000 nM; with CaSki, 2100 nM; in the data set with Saos-2, 3200 nM; in the data set with HO-8910, 1900 nM; in the data set on A2780, 2500 nM; with KYSE-70, 2700 nM. The IC50 in the data set on NCI-H1650 came out at 2700 nM; in the data set on NCI-H1975, 3100 nM; in the data set with Panc-1 it was 3300 nM. Besides, in the data set on TNF-α (Animal-1), the “Serum TNF-α level, Animal-1” value worked out at 1.5 ng/mL. Further, the “Serum TNF-α level, Animal-2” value in the data set with TNF-α (Animal-2) stood at 1.2 ng/mL. For the same compound, the “Serum TNF-α level, Animal-3” value with TNF-α (Animal-3) is 1.2 ng/mL. Further, the “Serum IL-6 level, Animal-1” value in the data set on IL-6 (Animal-1) is 1.5 ng/mL. Further, the “Serum IL-6 level, Animal-2” value in the data set with IL-6 (Animal-2) stood at 1.3 ng/mL. In the data set with IL-6 (Animal-3), the “Serum IL-6 level, Animal-3” value was found to be 1.2 ng/mL. In addition, the Macroscopic pathological score in the data set on IBD animal model stood at 2.5 ± 0.1. Besides, the “Activity (μM): inhibitory activity for XPO1 protein (full inhibitory concentration)” value on XPO1 protein lay in the range of 1 to 5 µM. In addition, the “NES-GFP cell localization (FIG. 1)” value at XPO1 protein (laser confocal micrograph) is “most of NES-GFP protein emitting green fluorescence is congregated in nucleus”.

Regarding `[O-][S+](/C=C/CCN=C=S)c1ccc2ccccc2c1` (stereo not shown) [Compound I-11], the activity at 10 µg/mL in the data set with HMLE-Snail cell line (10 μg/ml, treated for 24 hours, control = 100) fell in the range of 30 to 35%. Moreover, in data set [1], the nontoxic dose result is given as “at least 300 mg/kg/day”. Also, the “Activity (μM): inhibitory activity for XPO1 protein (full inhibitory concentration)” value on XPO1 protein is 1 to 5 µM.

The record behind these values is patent US10315990B2, “Isothiocyanate compounds and isothiocyanate XPO1 protein inhibitor drugs thereof” (DRIVINGFORCE THERAPEUTICS Co., Ltd., priority 2015, dated 2019).
